Reference: patent US10118916B2, “Modulators of cystic fibrosis transmembrane conductance regulator protein” (AbbVie S.à.r.l., priority 2016, dated 2018)

Target: T1, F508delCFTR (Homo sapiens, UniProt P13569, DEL508-508)
T1 construct: expressed in transfected cells; host or cells: CFBE41o- (human lung derived epithelial cell line), doxycycline-inducible
Experiment: Cell Surface Expression-Horse Radish Peroxidase (CSE-HRP) assay
Format: cell-based
Conditions: CFBE41o-F508delCFTR-HRP cells; for EC50: F508delCFTR cell surface expression, luminescence, 18-24 hours at 33° C., highest concentration 20 μM; for Maximum % activity: maximum at any tested concentration, normalized to on-plate positive control (3 μM)
How it was run: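 CFBE41o- cells expressing doxycycline-induced (0.5 μg/mL, 72 h at 37 °C) F508delCFTR with HRP in the fourth extracellular loop; compounds 8 points, 3-fold from 20 μM, 18-24 h at 33 °C. Surface HRP measured by luminol luminescence, normalised to DMSO and 3 μM reference corrector; EC50 from variable-slope sigmoidal fit of triplicate plates.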

T1 sequence (P13569 with tags, fused parts or gaps DEL508-508): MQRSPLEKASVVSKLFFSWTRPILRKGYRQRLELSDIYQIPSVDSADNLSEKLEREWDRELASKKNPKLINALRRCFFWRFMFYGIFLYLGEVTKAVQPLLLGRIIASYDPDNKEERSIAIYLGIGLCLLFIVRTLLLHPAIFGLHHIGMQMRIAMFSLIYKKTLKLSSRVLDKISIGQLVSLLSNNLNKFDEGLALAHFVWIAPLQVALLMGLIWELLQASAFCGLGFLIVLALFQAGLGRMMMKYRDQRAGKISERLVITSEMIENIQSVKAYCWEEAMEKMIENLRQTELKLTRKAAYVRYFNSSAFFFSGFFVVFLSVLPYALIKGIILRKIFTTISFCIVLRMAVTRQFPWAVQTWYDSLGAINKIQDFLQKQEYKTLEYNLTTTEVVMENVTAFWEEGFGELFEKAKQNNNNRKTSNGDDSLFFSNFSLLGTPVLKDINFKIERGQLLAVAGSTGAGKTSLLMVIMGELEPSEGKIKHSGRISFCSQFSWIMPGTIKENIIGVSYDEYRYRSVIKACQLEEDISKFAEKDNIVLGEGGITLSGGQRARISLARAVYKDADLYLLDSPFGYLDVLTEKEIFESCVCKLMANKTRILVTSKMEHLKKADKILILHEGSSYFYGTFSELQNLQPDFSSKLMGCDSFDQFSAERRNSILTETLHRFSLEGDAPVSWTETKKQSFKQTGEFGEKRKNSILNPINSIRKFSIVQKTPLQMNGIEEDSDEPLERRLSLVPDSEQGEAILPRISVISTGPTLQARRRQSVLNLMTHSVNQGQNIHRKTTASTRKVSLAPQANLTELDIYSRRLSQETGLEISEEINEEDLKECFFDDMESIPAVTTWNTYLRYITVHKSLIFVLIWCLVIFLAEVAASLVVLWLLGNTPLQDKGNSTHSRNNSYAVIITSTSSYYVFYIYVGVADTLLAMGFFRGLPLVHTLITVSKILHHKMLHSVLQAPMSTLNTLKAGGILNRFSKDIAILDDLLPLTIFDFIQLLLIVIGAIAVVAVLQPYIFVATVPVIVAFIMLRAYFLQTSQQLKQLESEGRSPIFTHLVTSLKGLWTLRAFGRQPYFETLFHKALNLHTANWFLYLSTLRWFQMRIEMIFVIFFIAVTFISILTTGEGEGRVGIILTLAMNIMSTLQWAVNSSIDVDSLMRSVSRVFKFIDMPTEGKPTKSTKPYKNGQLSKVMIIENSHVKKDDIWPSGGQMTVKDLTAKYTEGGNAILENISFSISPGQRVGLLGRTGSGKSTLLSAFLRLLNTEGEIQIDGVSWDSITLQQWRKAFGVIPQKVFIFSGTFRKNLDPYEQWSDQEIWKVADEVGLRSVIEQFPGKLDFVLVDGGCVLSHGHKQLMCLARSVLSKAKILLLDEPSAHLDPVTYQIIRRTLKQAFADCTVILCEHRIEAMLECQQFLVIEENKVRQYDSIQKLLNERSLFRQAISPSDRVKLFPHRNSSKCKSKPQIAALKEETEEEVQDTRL

CC(C)(C(=O)N[C@@H]1C[C@H](c2cccc(C(=O)O)c2)Oc2ccccc21)c1ccc(Cl)cc1Cl [Example 52, 3-{(2R,4R)-4-[2-(2,4-dichlorophenyl)-2-methylpropanamido]-3,4-dihydro-2H-1-benzopyran-2-yl}benzoic acid]
EC50: > 20000 nM | Maximum % activity: 1.8%

COc1ccc2c(c1)O[C@@H](c1ccc(C(=O)O)cc1)C[C@H]2NC(=O)C(C)(C)c1ccc(Cl)cc1 [Example 110, 4-{(2R,4R)-4-[2-(4-chlorophenyl)-2-methylpropanamido]-7-methoxy-3,4-dihydro-2H-1-benzopyran-2-yl}benzoic acid]
EC50: 310 nM | Maximum % activity: 85.0%

COC(=O)[C@H]1CC[C@H]([C@H]2C[C@@H](NC(=O)C3(c4ccc5c(c4)OC(F)(F)O5)CC3)c3ccc(OC(F)F)cc3O2)CC1 (single isomer, unassigned) [Example 14E]
EC50: 200 nM | Maximum % activity: 125.0%

COc1ccc2c(c1)O[C@@H](c1ccc(C(=O)O)cc1)C[C@H]2NC(=O)C1(c2cccc(C#N)c2)CC1 [Example 87, 4-[(2R,4R)-4-{[1-(3-cyanophenyl)cyclopropane-1-carbonyl]amino}-7-methoxy-3,4-dihydro-2H-1-benzopyran-2-yl]benzoic acid]
EC50: 1830 nM | Maximum % activity: 46.0%

COc1ccc2c(c1)OC(c1ccc(OC)c(OC)c1)CC2NC(=O)C1(c2ccc(F)cc2)CC1 (stereo not shown) [Example 20, N-[2-(3,4-dimethoxyphenyl)-7-methoxy-3,4-dihydro-2H-1-benzopyran-4-yl]-1-(4-fluorophenyl)cyclopropane-1-carb oxamide]
EC50: 890 nM | Maximum % activity: 51.1%

COc1ccc2c(c1)O[C@@H](c1ccc(C(=O)O)cc1)C[C@H]2NC(=O)C1(c2ccc(OC(F)(F)F)cc2)CCC1 [Example 70, 4-[(2R,4R)-7-methoxy-4-({1-[4-(trifluoromethoxy)phenyl]cyclobutane-1-carbonyl}amino)-3,4-dihydro-2H-1-benzopyran-2-yl]benzoic acid]
EC50: 2210 nM | Maximum % activity: 28.0%

COc1ccc2c(c1)O[C@@H](c1ccc(C(=O)O)cc1)C[C@H]2NC(=O)C1(c2ccccc2OC)CC1 [Example 103, 4-[(2R,4R)-7-methoxy-4-{[1-(2-methoxyphenyl)cyclopropane-1-carbonyl]amino}-3,4-dihydro-2H-1-benzopyran-2-yl]benzoic acid]
EC50: 4010 nM | Maximum % activity: 29.0%

COc1ccc2c(c1)O[C@@H](c1ccc(C(=O)O)cc1)C[C@H]2NC(=O)C(C)(C)Oc1ccc(Cl)c(C)c1 [Example 77, 4-{(2R,4R)-4-[2-(4-chloro-3-methylphenoxy)-2-methylpropanamido]-7-methoxy-3,4-dihydro-2H-1-benzopyran-2-yl}benzoic acid]
EC50: > 20000 nM | Maximum % activity: 8.0%

COc1ccc2c(c1)O[C@@H](c1cccc(C(=O)O)c1)C[C@H]2NC(=O)[C@]1(C)CCc2cc(C)ccc21 (single isomer, unassigned) [Example 125]
EC50: 440 nM | Maximum % activity: 70.7%

COc1ccc2c(c1)O[C@@H](c1ccc(C(=O)O)cc1)C[C@H]2NC(=O)C1(c2ccccc2Cl)CCC1 [Example 96, 4-[(2R,4R)-4-{[1-(2-chlorophenyl)cyclobutane-1-carbonyl]amino}-7-methoxy-3,4-dihydro-2H-1-benzopyran-2-yl]benzoic acid]
EC50: 3010 nM | Maximum % activity: 33.0%

COc1ccc2c(c1)O[C@@H](c1ccc(C(=O)O)cc1)C[C@H]2NC(=O)C1(c2ccc(C)cc2)CC1 [Example 6, 4-[(2R,4R)-7-methoxy-4-{[1-(4-methylphenyl)cyclopropane-1-carbonyl]amino}-3,4-dihydro-2H-1-benzopyran-2-yl]benzoic acid]
EC50: 90 nM | Maximum % activity: 95.9%

COc1ccc2c(c1)O[C@@H](c1ccc(C(=O)O)cc1)C[C@H]2NC(=O)C1(c2ccc(C#N)cc2)CC1 [Example 92, 4-[(2R,4R)-4-{[1-(4-cyanophenyl)cyclopropane-1-carbonyl]amino}-7-methoxy-3,4-dihydro-2H-1-benzopyran-2-yl]benzoic acid]
EC50: 350 nM | Maximum % activity: 62.0%

C[C@@]1(C(=O)N[C@@H]2C[C@H](c3ccc(C(=O)O)cc3)Oc3ccccc32)CCc2cc(Cl)ccc2O1 [Example 62, 4-[(2R,4R)-4-{[(2S)-6-chloro-2-methyl-3,4-dihydro-2H-1-benzopyran-2-carbonyl]amino}-3,4-dihydro-2H-1-benzopyran-2-yl]benzoic acid]
EC50: 2650 nM | Maximum % activity: 22.6%

COc1ccc2c(c1)O[C@@H](c1ccc(C(=O)O)cc1)C[C@H]2NC(=O)C1(c2ccccc2Br)CCC1 [Example 94, 4-[(2R,4R)-4-{[1-(2-bromophenyl)cyclobutane-1-carbonyl]amino}-7-methoxy-3,4-dihydro-2H-1-benzopyran-2-yl]benzoic acid]
EC50: 2630 nM | Maximum % activity: 49.0%

COc1ccc2c(c1)O[C@@H](c1ccc(C(=O)O)cc1)C[C@H]2NC(=O)C(C)(C)Oc1ccc(C#N)cc1 [Example 107, 4-{(2R,4R)-4-[2-(4-cyanophenoxy)-2-methylpropanamido]-7-methoxy-3,4-dihydro-2H-1-benzopyran-2-yl}benzoic acid]
EC50: 1320 nM | Maximum % activity: 22.4%

COc1ccc2c(c1)O[C@@H](c1ccc(C(=O)O)cc1)C[C@H]2NC(=O)C1(c2cccc(F)c2)CCCC1 [Example 90, 4-[(2R,4R)-4-{[1-(3-fluorophenyl)cyclopentane-1-carbonyl]amino}-7-methoxy-3,4-dihydro-2H-1-benzopyran-2-yl]benzoic acid]
EC50: > 20000 nM | Maximum % activity: 8.1%

COc1ccc2c(c1)O[C@@H](c1ccc(C(=O)O)cc1)C[C@H]2NC(=O)[C@]1(C)CCc2cc(C)ccc21 (single isomer, unassigned) [Example 126]
EC50: 650 nM | Maximum % activity: 72.1%

COC(=O)c1cccc([C@H]2C[C@@H](NC(=O)C3(C)CCc4ccc(OC(F)(F)F)cc43)c3ccc(OC)cc3O2)c1 (stereo partly drawn) [Example 57, methyl 3-[(2R,4R)-7-methoxy-4-{[1-methyl-6-(trifluoromethoxy)-2,3-dihydro-1H-indene-1-carbonyl]amino}-3,4-dihydro-2H-1-benzopyran-2-yl]benzoate]
EC50: > 20000 nM | Maximum % activity: 2.3%

COc1ccc2c(c1)O[C@@H](c1ccc(C(=O)O)cc1)C[C@H]2NC(=O)C(C)(C)c1ccc2c(c1)CCO2 [Example 71, 4-{(2R,4R)-4-[2-(2,3-dihydro-1-benzofuran-5-yl)-2-methylpropanamido]-7-methoxy-3,4-dihydro-2H-1-benzopyran-2-yl}benzoic acid]
EC50: 120 nM | Maximum % activity: 52.0%

COC(=O)c1ccc([C@H]2C[C@@H](NC(=O)[C@@]3(C)CCc4cc(Cl)ccc4O3)c3ccccc3O2)cc1 [Example 59, methyl 4-[(2R,4R)-4-{[(2R)-6-chloro-2-methyl-3,4-dihydro-2H-1-benzopyran-2-carbonyl]amino}-3,4-dihydro-2H-1-benzopyran-2-yl]benzoate]
EC50: > 20000 nM | Maximum % activity: 1.8%

CC1(C(=O)N[C@@H]2C[C@H](c3cccc(C(=O)O)c3)Oc3ccccc32)CCc2cc(OC(F)(F)F)ccc21 (stereo partly drawn) [Example 55, 3-[(2R,4R)-4-{[1-methyl-5-(trifluoromethoxy)-2,3-dihydro-1H-indene-1-carbonyl]amino}-3,4-dihydro-2H-1-benzopyran-2-yl]benzoic acid]
EC50: 2710 nM | Maximum % activity: 49.9%

C[C@@]1(C(=O)N[C@@H]2C[C@H](c3cccc(C(=O)O)c3)Oc3ccccc32)CCc2ccc(Cl)cc21 [Example 53, 3-[(2R,4R)-4-{[(1R)-6-chloro-1-methyl-2,3-dihydro-1H-indene-1-carbonyl]amino}-3,4-dihydro-2H-1-benzopyran-2-yl]benzoic acid]
EC50: > 20000 nM | Maximum % activity: 1.2%

CCOC(=O)[C@H]1CC[C@H]([C@H]2C[C@@H](NC(=O)C3(c4ccc5c(c4)OC(F)(F)O5)CC3)c3ccc(OC(F)(F)F)cc3O2)CC1 [Example 12, ethyl trans-4-[(2R,4R)-4-{[1-(2,2-difluoro-2H-1,3-benzodioxol-5-yl)cyclopropane-1-carbonyl]amino}-7-(trifluoromethoxy)-3,4-dihydro-2H-1-benzopyran-2-yl]cyclohexane-1-carboxylate]
EC50: 70 nM | Maximum % activity: 135.0%

CCOC(=O)[C@H]1CC[C@H]([C@H]2C[C@@H](NC(=O)C3(c4ccc5c(c4)OC(F)(F)O5)CC3)c3ccc(OC)cc3O2)CC1 [Example 10, ethyl trans-4-[(2R,4R)-4-{[1-(2,2-difluoro-2H-1,3-benzodioxol-5-yl)cyclopropane-1-carbonyl]amino}-7-methoxy-3,4-dihydro-2H-1-benzopyran-2-yl]cyclohexane-1-carboxylate]
EC50: 290 nM | Maximum % activity: 119.0%

COc1ccc2c(c1)OC(c1ccc(OC)c(OC)c1)CC2NC(=O)C1(c2ccccc2)CC(F)(F)C1 (stereo not shown) [Example 16, N-[2-(3,4-dimethoxyphenyl)-7-methoxy-3,4-dihydro-2H-1-benzopyran-4-yl]-3,3-difluoro-1-phenylcyclobutane-1-carboxamide]
EC50: > 20000 nM | Maximum % activity: 4.0%

C[C@]1(C(=O)N[C@@H]2C[C@H](c3cccc(C(=O)O)c3)Oc3ccccc32)CCc2ccc(Cl)cc21 [Example 54, 3-[(2R,4R)-4-{[(1S)-6-chloro-1-methyl-2,3-dihydro-1H-indene-1-carbonyl]amino}-3,4-dihydro-2H-1-benzopyran-2-yl]benzoic acid]
EC50: > 20000 nM | Maximum % activity: 10.4%
